US7135466B2 (Kirin Beer Kabushiki Kaisha, priority 1999, dated 2006)
Where two headings read alike, the source gives them in different places.

Experiments:
PDGF-Ra = target: T1, PDGF-Ra (Homo sapiens, UniProt P16234); assay: Inhibitory activity against PDGF-Ra phosphorylation by PDGF-AA stimulation using G292; type: cell-based; details: for IC50: > means inhibition at indicated concentration not more than 50%, < and << not less than 50%, read-out: PDGF (E) IC50; for inhibition at 0.1 µM: G292, at 100 nM, read-out: PDGF (E) inhibition (%) at 100 nM
T1 construct: host or cells: G-292 human osteosarcoma cells
Method in brief: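 G-292 human osteosarcoma cells in 0.1% FBS medium overnight, given compound for 1 hr at 37° C, then PDGF-AA 50 ng/ml for 5 min. Lysates captured on anti-phosphotyrosine (PY-20) plates and probed with anti-PDGF-Ra plus HRP secondary; absorbance at 450 nm.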

c-kit = target: T2, c-kit (Homo sapiens, UniProt P10721); assay: Inhibitory activity against c-kit autophosphorylation (MO7e cells, h-SCF); type: cell-based; details: for inhibition at 1 µM: Mo7e, at 1000 nM; for IC50: MO7e cells, read-out: c-kit IC50
T2 construct: MO7e (human megakaryocytic leukemia cell line) which had been arrested for 20 hr; endogenous in cells; host or cells: MO7e human megakaryocytic leukemia cell line
Method in brief: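 MO7e human megakaryocytic leukemia cells, arrested 20 hr, treated with compound 1 hr, then stimulated with 50 ng/ml h-SCF for 5 min and lysed. Lysates captured on immobilized anti-phosphotyrosine antibody, detected with anti-c-kit primary and HRP secondary antibody; absorbance at 450 nm.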

[1] = figure within parentheses in −( ) or >1000( )
[2] = figure in parentheses in >100( )
[3] = figure within parentheses in >100( )

T1 sequence (P16234 24-1089): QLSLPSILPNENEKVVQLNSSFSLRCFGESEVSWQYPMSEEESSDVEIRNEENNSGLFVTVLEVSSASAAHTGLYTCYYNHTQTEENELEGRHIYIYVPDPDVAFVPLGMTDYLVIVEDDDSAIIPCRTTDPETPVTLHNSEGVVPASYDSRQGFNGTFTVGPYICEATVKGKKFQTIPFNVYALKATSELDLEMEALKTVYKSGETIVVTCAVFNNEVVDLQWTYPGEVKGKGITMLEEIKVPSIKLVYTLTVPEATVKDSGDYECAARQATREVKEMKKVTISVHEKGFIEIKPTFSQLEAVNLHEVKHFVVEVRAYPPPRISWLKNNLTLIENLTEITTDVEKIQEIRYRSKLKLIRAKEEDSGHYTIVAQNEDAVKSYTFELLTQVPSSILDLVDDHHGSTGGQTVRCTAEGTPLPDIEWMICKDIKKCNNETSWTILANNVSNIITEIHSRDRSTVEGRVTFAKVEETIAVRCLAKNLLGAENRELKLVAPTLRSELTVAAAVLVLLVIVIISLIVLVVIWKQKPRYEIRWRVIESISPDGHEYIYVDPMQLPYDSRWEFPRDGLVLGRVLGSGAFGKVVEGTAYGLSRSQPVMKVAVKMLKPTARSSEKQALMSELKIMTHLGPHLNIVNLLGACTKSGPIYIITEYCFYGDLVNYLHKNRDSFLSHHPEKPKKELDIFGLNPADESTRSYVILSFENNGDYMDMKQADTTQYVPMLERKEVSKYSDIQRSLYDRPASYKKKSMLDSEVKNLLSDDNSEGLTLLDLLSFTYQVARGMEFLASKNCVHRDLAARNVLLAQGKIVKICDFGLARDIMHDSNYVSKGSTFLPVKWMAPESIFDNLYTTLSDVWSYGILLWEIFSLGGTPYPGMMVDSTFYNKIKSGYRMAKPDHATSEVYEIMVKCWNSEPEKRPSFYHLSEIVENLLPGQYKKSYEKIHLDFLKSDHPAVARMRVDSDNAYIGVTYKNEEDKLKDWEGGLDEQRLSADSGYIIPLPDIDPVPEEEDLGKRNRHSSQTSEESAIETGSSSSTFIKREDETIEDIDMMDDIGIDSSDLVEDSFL
T2 sequence (P10721 26-976): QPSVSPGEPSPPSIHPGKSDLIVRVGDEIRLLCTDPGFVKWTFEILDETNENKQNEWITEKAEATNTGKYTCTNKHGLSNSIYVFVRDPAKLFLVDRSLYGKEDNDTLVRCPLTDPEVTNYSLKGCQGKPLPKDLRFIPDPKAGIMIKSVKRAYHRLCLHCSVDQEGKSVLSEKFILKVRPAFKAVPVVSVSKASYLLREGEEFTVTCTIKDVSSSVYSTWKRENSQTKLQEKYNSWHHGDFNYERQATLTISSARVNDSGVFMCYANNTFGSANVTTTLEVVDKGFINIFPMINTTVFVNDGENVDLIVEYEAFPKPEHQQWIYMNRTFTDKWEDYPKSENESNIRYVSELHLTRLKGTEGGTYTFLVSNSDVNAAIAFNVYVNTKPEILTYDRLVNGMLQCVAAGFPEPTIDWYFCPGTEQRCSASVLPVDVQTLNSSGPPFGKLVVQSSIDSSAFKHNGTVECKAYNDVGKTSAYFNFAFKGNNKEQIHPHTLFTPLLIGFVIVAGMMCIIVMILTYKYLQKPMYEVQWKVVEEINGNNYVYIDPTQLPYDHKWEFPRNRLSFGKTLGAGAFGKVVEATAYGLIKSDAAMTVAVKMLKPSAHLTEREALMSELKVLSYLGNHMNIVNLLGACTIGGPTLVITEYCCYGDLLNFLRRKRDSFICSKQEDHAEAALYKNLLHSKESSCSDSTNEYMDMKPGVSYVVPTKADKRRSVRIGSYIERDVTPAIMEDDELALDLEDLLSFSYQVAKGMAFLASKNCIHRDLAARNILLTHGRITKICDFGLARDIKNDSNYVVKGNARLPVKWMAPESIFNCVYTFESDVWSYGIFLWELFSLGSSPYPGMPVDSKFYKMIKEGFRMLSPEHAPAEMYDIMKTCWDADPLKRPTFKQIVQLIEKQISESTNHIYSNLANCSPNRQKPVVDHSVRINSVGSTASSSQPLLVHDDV

Row | IC50 (PDGF-Ra) [nM] | IC50 (PDGF-Ra; Pharmacological Test Example 1) [nM] | IC50 (c-kit; h-SCF 50 ng/ml) [nM] | IC50 (c-kit; 50 ng/ml h-SCF) [nM] | SMILES | other results
1 | 79 | – | – | – | COc1cc2ncnc(Oc3ccc(NC(=S)NCCCN4CCCC4=O)cc3)c2cc1OC [Example 525, N-{4-[(6,7-Dimethoxy-4-quinazolinyl)oxy]phenyl}-N′-[3-(2-oxotetrahydro-1H-1-pyrrolyl)-propyl]thiourea] | inhibition at 1 µM (c-kit; [1]): 41%
2 | – | < 10 | 55 | – | COc1cc2ncnc(Oc3ccc(NC(=O)OCCCSc4ccc(C)cc4)cc3)c2cc1OC [Example 40, 3-[(4-Methylphenyl)sulfanyl)propyl N-{4-[(6,7-dimethoxy-4-quinazolinyl)oxy]phenyl}carbamate] | –
3 | > 100 | – | – | – | CCCCCCCCc1ccc(C(=O)NC(=S)Nc2ccc(Oc3ccnc4cc(OC)c(OC)cc34)cc2)cc1 [Example 1128, N-{4-[(6,7-Dimethoxy-4-quinolyl)oxy]phenyl}-N′-(4-octylbenzoyl)thiourea] | inhibition at 0.1 µM (PDGF-Ra; [2]): 47%; inhibition at 1 µM (c-kit; figure in parentheses in −( )): 17%
4 | > 100 | – | – | – | COc1cc2nccc(Oc3ccc(NC(=O)NN4CCCCC4)c([N+](=O)[O-])c3)c2cc1OC [Example 594, N-{4-[(6,7-Dimethoxy-4-quinolyl)oxy]-2-nitrophenyl}-N′-(1-piperidinyl)urea] | inhibition at 0.1 µM (PDGF-Ra; [3]): 39%; inhibition at 1 µM (c-kit; [1]): 10%
5 | 10 | – | – | 548 | COc1cc2nccc(Oc3ccc(NC(=S)NC(=O)[C@H](C)c4ccccc4)cc3)c2cc1OC [Example 743, N-{4-[(6,7-Dimethoxy-4-quinolyl)oxy]phenyl}-N′-[(2R)-2-phenylpropanoyl]thiourea] | –
6 | – | < 10 | 178 | – | COc1cccc(OCCCOC(=O)Nc2ccc(Oc3ccnc4cc(OC)c(OC)cc34)cc2)c1 [Example 161, 3-(3-Methoxyphenoxy)propyl N-{4-[(6,7-dimethoxy-4-quinolyl)oxy]phenyl}carbamate] | –
7 | 65 | – | – | 774 | COc1cc2ncnc(Oc3ccc(NC(=O)NCCN(C)C)cc3)c2cc1OC [Example 627, N-{4-[(6,7-Dimethoxy-4-quinazolinyl)oxy]phenyl}-N′-[2-(dimethylamino)ethyl]urea] | –
8 | 14 | – | – | – | COc1cc2nccc(Oc3ccc(NC(=S)NC(=O)c4ccc(CCl)cc4)cc3)c2cc1OC [Example 1136, N-[4-(Chloromethyl)benzoyl]-N′-{4-[(6,7-dimethoxy-4-quinolyl)oxy]phenyl}thiourea] | IC50 (c-kit; h-SCF stimulation): 639 nM
9 | – | 11 | 389 | – | COc1cc2ncnc(Oc3ccc(NC(=O)OCc4ccc(F)cc4)c(Cl)c3)c2cc1OC [Example 12, 4-Fuorobenzyl N-{2-chloro-4-[(6,7-dimethoxy-4-quinazolinyl)oxy]phenyl}carbamate] | –
10 | > 100 | – | – | – | COc1cc2nccc(Oc3cc(C)c(NC(=S)NCCN(C(C)C)C(C)C)cc3C)c2cc1OC [Example 555, N-{4-[(6,7-Dimethoxy-4-quinolyl)oxy]-2,5-dimethylphenyl}-N′-(2-diisopropylaminoethyl)thiourea] | inhibition at 0.1 µM (PDGF-Ra; [3]): 29%; inhibition at 1 µM (c-kit; [1]): 39%
11 | > 100 | – | – | – | COc1cc2nccc(Oc3ccc(NC(=S)NC(=O)CCC4CCCC4)c(Cl)c3)c2cc1OC [Example 1106, N-{2-Chloro-4-[(6,7-dimethoxy-4-quinolyl)oxy]phenyl}-N′-(3-cyclopentylpropanoyl)thiourea] | inhibition at 0.1 µM (PDGF-Ra; [2]): 30%; inhibition at 1 µM (c-kit; figure in parentheses in −( )): 0%
12 | – | < 10 | 77 | – | COc1cc2ncnc(Oc3ccc(NC(=O)OCC4CCCC4)cc3)c2cc1OC [Example 397, Cyclopentylmethyl N-{4-[(6,7-dimethoxy-4-quinazolinyl)oxy]phenyl}carbamate] | –
13 | 35 | – | – | 254 | COc1cc2ncnc(Oc3ccc(NC(=O)NC4CCN(Cc5ccccc5)CC4)c([N+](=O)[O-])c3)c2cc1OC [Example 640, N-(1-Benzyl-4-piperidyl)-N′-{4-[(6,7-dimethoxy-4-quinazolinyl)oxy]-2-nitrophenyl}urea] | –
14 | 6 | – | – | 335 | COc1cccc(OCCCOc2ccc(Oc3ccnc4cc(OC)c(OC)cc34)cc2)c1 [Example 793, 6,7-Dimethoxy-4-{4-[3-(3-methoxyphenoxy)propoxy]phenoxy}quinoline] | –
15 | < 10 | – | – | – | CCN(CC)C(=O)NC(=S)Nc1ccc(Oc2ccnc3cc(OC)c(OC)cc23)c(Cl)c1 [Example 1048, N-{3-Chloro-4-[(6,7-dimethoxy-4-quinolyl)oxy]phenyl}-{[(diethylamino)carbonyl]amino}methanethioamide] | IC50 (c-kit; h-SCF stimulation): 250 nM
16 | 16 | – | – | 177 | COc1cc2nccc(Oc3ccc(NC(=S)NC(=O)CC4CCCCC4)cc3Cl)c2cc1OC [Example 704, N-{3-Chloro-4-[(6,7-dimethoxy-4-quinolyl)oxy]phenyl}-N′-(2-cyclohexylacetyl)thiourea] | –

Row | IC50 (PDGF-Ra) [nM] | IC50 (PDGF-Ra; Pharmacological Test Example 1) [nM] | IC50 (c-kit; h-SCF 50 ng/ml) [nM] | IC50 (c-kit; 50 ng/ml h-SCF) [nM] | SMILES | other results
17 | – | 77 | 228 | – | COc1cc2nccc(Oc3cc(C)c(NC(=O)OC(C)C)cc3C)c2cc1OC [Example 347, Isopropyl N-{4-[(6,7-dimethoxy-4-quinolyl)oxy]-2,5-dimethylphenyl}carbamate] | –
18 | – | 4 | 57 | – | COc1ccc(COC(=O)Nc2ccc(Oc3ccnc4cc(OC)c(OC)cc34)cc2)cc1 [Example 249, 4-Methoxybenzyl N-{4-[(6,7-dimethoxy-4-quinolyl)oxy]phenyl}carbamate] | –
19 | 52 | – | – | 549 | CCCCN(CCCC)CCNC(=O)Nc1ccc(Oc2ccnc3cc(OC)c(OC)cc23)c(C)c1C [Example 684, N-[2-(Dibutylamino)ethyl]-N′-{4-[(6,7-dimethoxy-4-quinolyl)oxy]-2,3-dimethylphenyl}urea] | –
20 | – | 21 | 192 | – | COc1cc2nccc(Oc3cc(C)c(NC(=O)OCc4cccc(Cl)c4)cc3C)c2cc1OC [Example 242, 3-Chlorobenzyl N-{4-[(6,7-dimethoxy-4-quinolyl)oxy]-2,5-dimethylphenyl}carbamate] | –
21 | 34 | – | – | 436 | CCN(CC)CCNC(=O)Nc1ccc(Oc2ccnc3cc(OC)c(OC)cc23)c(C)c1C [Example 624, N-[2-(Diethylamino)ethyl]-N′-{4-[(6,7-dimethoxy-4-quinolyl)oxy]-2,3-dimethylphenyl}urea] | –
22 | 24 | – | – | 98 | COc1cc2nccc(Oc3ccc(NC(=O)OCCCN4CCCCC4)c(C)c3C)c2cc1OC [Example 415, 3-Piperidinopropyl N-{4-[(6,7-dimethoxy-4-quinolyl)oxy]-2,3-dimethylphenyl}carbamate] | –
23 | – | 17 | 422 | – | COc1cc2ncnc(Oc3ccc(NC(=O)OCc4ccc(C)cc4)c(Cl)c3)c2cc1OC [Example 2, 4-Methylbenzyl N-{2-chloro-4-[(6,7-dimethoxy-4-quinazolinyl)oxy]phenyl}carbamate] | –
24 | 12 | – | – | – | CCN(CC)C(=O)NC(=S)Nc1ccc(Oc2ccnc3cc(OC)c(OC)cc23)cc1 [Example 1041, N-{4-[(6,7-Dimethoxy-4-quinolyl)oxy]phenyl}-{[(diethylamino)carbonyl]amino}methanethioamide] | IC50 (c-kit; h-SCF stimulation): 98 nM
25 | – | < 10 | 259 | – | CCCC(CCC)OC(=O)Nc1ccc(Oc2ccnc3cc(OC)c(OC)cc23)cc1 [Example 332, 1-Propylbutyl N-{4-[(6,7-dimethoxy-4-quinolyl)oxy]phenyl}carbamate] | –
26 | – | < 10 | 596 | – | COc1cc2ncnc(Oc3ccc(NC(=O)OCc4ccccc4C)c(Cl)c3)c2cc1OC [Example 320, 2-Methylbenzyl N-{2-chloro-4-[(6,7-dimethoxy-4-quinazolinyl)oxy]phenyl}carbamate] | –
27 | – | < 10 | 41 | – | COc1cc2nccc(Oc3ccc(NC(=O)OCCCc4ccccc4)cc3)c2cc1OC [Example 376, 3-Phenylpropyl N-{4-[(6,7-dimethoxy-4-quinolyl)oxy]phenyl}carbamate] | –
28 | 52 | – | – | 375 | COc1cc2ncnc(Oc3ccc(NC(=O)NC4CCN(Cc5ccccc5)CC4)c(Cl)c3)c2cc1OC [Example 637, N-(1-Benzyl-4-piperidyl)-N′-{2-chloro-4-[(6,7-dimethoxy-4-quinazolinyl)oxy]phenyl}urea] | –
29 | – | < 10 | < 30 | – | COc1cc2nccc(Oc3ccc(NC(=O)OCCCOc4ccccc4F)cc3)c2cc1OC [Example 142, 3-(2-Fluorophenoxy)propyl N-{4-[(6,7-dimethoxy-4-quinolyl)oxy]phenyl}carbamate] | –
30 | 5 | – | – | 336 | COc1cc2nccc(Oc3ccc(OCCCOc4ccccc4OC)cc3)c2cc1OC [Example 795, 6,7-Dimethoxy-4-{4-[3-(2-methoxy-phenoxy)propoxy]phenoxy}quinoline] | –
31 | – | 14 | – | – | COc1cc2nccc(Oc3cc(C)c(NC(=O)OC(C)c4cccc(C(F)(F)F)c4)cc3C)c2cc1OC (centres unmarked) [Example 89, 1-[3-(Trifluoromethyl)phenyl]ethyl N-{4-[(6,7-dimethoxy-4-quinolyl)oxy]-2,5-dimethylphenyl}carbamate] | inhibition at 1 µM (c-kit; figure in parentheses in −( )): 35%
32 | – | < 10 | < 30 | – | COc1cc2ncnc(Oc3ccc(NC(=O)OCCCOc4ccc(Cl)cc4)cc3)c2cc1OC [Example 30, 3-(4-Chlorophenoxy)propyl N-{4-[(6,7-dimethoxy-4-quinazolinyl)oxy]phenyl}carbamate] | –
